Values quoted from earlier work in patent US20220323523A1, “METHOD AND APPARATUS FOR THE INFUSION OF CA[…] A SHELF-STABLE FOOD COMPOSITION” (priority 2019, published 2022).

Details: rats; for enhancement of exposure by co-administration of lipids compared to lipid-free formulations: co-administration of lipids vs lipid-free formulations

| Compound | enhancement of exposure by co-administration of lipids compared to lipid-free formulations | enhancement of bioavailability by co-administration of cannabinoids with lipids |
| --- | --- | --- |
| C=C(C)[C@@H]1CCC(C)=C[C@H]1c1c(O)cc(CCCCC)cc1O [CBD, Cannabidiol] | 3 fold | ~3 fold |
| CCCCCc1cc(O)c2c(c1)OC(C)(C)[C@@H]1CCC(C)=C[C@@H]21 [THC, Tetrahydrocannabinol] | 2.5 fold | more than 2.5 fold |
